Assay results: patent publication US9365520B2, “Heterocyclic compound” (Takeda Pharmaceutical Company Limited, priority 2014, dated 2016)

System: IL-17A gene expression
Test: Effect on IL-23-induced cytokine expression in mice
Assay type: in vivo, Balb/c mice
Settings: Mus musculus, 24 h; 10 mg/kg oral, 30 min before and 8 hr after IL-23; ear tissue; versus the negative control group; read-out: percent inhibition of IL-17A gene expression
Method: Effect on IL-23-Induced Cytokine Expression in Mice
A mouse IL-23 solution (500 ng/10 μL, prepared by Takeda Pharmaceutical Company Limited) or PBS (10 μL, negative control group) was administered intradermally in the ear of Balb/c mice (Charles River Japan, male, 7 weeks old). Twenty-four hr after administration, the ear was resected under isoflurane anesthesia. The test compound was suspended in 0.5% methylcellulose and administered orally 30 min before and 8 hr after IL-23 administration.
RNA extraction from the ear tissue and quantitative PCR were performed as follows. Specifically, ear tissue 5 mm in diameter was punched from an area of the resected ear centering on the IL-23 injection site, and the tissue was immersed in RNAlater (QIAGEN) for at least 18 hr. The RNAlater-treated ear tissue was homogenized in 350 μL of RLT buffer (RNeasy mini kit, QIAGEN) and treated (55° C., 10 min) with Proteinase K (QIAGEN). Total RNA was then extracted according to the RNeasy mini kit protocol. The RNA thus obtained was then reverse transcribed into cDNA using the High-Capacity RNA-to-cDNA kit (Applied Biosystems), and the amount of each gene expressions was measured by real-time PCR (Viia7™, Applied Biosystems). The PCR buffer used was TaqMan Fast Advanced Master Mix (Applied Biosystems), and TaqMan Gene Expression Assays (Applied Biosystems) Mm00439618_m1 (IL-17A) and 4352341E (β-actin) were used for each gene detection. The IL-17A gene expression level was normalized to the β-actin gene expression level, and the percent inhibition of IL-17A gene expression with the test compound was then calculated.
The results (percent inhibition of IL-17A gene expression with oral administration of the test compound) measured by the above-mentioned method are shown in Table 9.

Compound | inhibition in vivo at 10 mg/kg
COc1ccc2c(c1)CCN(C(=O)C1CC(CC(=O)O)C1)[C@H]2C(=O)Nc1cc(F)c([Si](C)(C)C)c(F)c1 (stereo partly drawn) [Example 4, (3-(((1R)-1-((3,5-difluoro-4-(trimethylsilyl)phenyl)carbamoyl)-6-methoxy-3,4-dihydroisoquinolin-2(1H)-yl)carbonyl)cyclobutyl)acetic acid] | 86%
COc1ccc2c(c1)CCN(C(=O)[C@H]1C[C@@H](C(=O)O)C1)[C@H]2C(=O)Nc1cc(F)c([Si](C)(C)C)c(F)c1 [Example 5, cis-3-(((1R)-1-((3,5-difluoro-4-(trimethylsilyl)phenyl)carbamoyl)-6-methoxy-3,4-dihydroisoquinolin-2(1H)-yl)carbonyl)cyclobutanecarboxylic acid] | 57%
COc1ccc2c(n1)CCN(C(=O)[C@H]1C[C@@H]1CC(=O)O)[C@H]2C(=O)Nc1cc(F)c2c(c1)CCC2(C)C [Example 6, ((1R,2S)-2-(((5R)-5-((7-fluoro-1,1-dimethyl-2,3-dihydro-1H-inden-5-yl)carbamoyl)-2-methoxy-7,8-dihydro-1,6-naphthyridin-6(5H)-yl)carbonyl)cyclopropyl)acetic acid] | 95%
CCOc1ccc2c(c1)CCN(C(=O)[C@H]1C[C@@H](C(=O)O)C1)[C@H]2C(=O)Nc1cc(F)c([Si](C)(C)C)c(F)c1 [Example 8, cis-3-(((1R)-1-((3,5-difluoro-4-(trimethylsilyl)phenyl)carbamoyl)-6-ethoxy-3,4-dihydroisoquinolin-2(1H)-yl)carbonyl)cyclobutanecarboxylic acid] | 72%
CCOc1ccc2c(c1)CCN(C(=O)[C@H]1C[C@H](C(=O)O)C1)[C@H]2C(=O)Nc1cc(F)c([Si](C)(C)C)c(F)c1 [Example 9, trans-3-(((1R)-1-((3,5-difluoro-4-(trimethylsilyl)phenyl)carbamoyl)-6-ethoxy-3,4-dihydroisoquinolin-2(1H)-yl)carbonyl)cyclobutanecarboxylic acid] | 57%
COc1ccc2c(n1)CCN(C(=O)[C@H]1C[C@@H]1CC(=O)O)[C@H]2C(=O)Nc1cc(F)c([Si](C)(C)C)c(F)c1 [Example 13, ((1R,2S)-2-(((5R)-5-((3,5-difluoro-4-(trimethylsilyl)phenyl)carbamoyl)-2-methoxy-7,8-dihydro-1,6-naphthyridin-6(5H)-yl)carbonyl)cyclopropyl)acetic acid] | 91%
CCOCC(C)(C)c1c(F)cc(NC(=O)[C@H]2c3ccc(OCC)cc3CCN2C(=O)[C@H]2C[C@@H](CC(=O)O)C2)cc1F [Example 18, (cis-3-(((1R)-6-ethoxy-1-((4-(1-ethoxy-2-methylpropan-2-yl)-3,5-difluorophenyl)carbamoyl)-3,4-dihydroisoquinolin-2(1H)-yl)carbonyl)cyclobutyl)acetic acid] | 72%
COCc1ccc2c(c1)CCN(C(=O)[C@H]1C[C@@H](CC(=O)O)C1)[C@H]2C(=O)Nc1cc(F)c2c(c1)CCC2(C)C [Example 19, (cis-3-(((1R)-1-((7-fluoro-1,1-dimethyl-2,3-dihydro-1H-inden-5-yl)carbamoyl)-6-(methoxymethyl)-3,4-dihydroisoquinolin-2(1H)-yl)carbonyl)cyclobutyl)acetic acid] | 90%
COc1ccc2c(n1)CCN(C(=O)[C@H]1C[C@H](CC(=O)O)C1)[C@H]2C(=O)Nc1cc(F)c2c(c1)CCC2(C)C [Example 20, (trans-3-(((5R)-5-((7-fluoro-1,1-dimethyl-2,3-dihydro-1H-inden-5-yl)carbamoyl)-2-methoxy-7,8-dihydro-1,6-naphthyridin-6(5H)-yl)carbonyl)cyclobutyl)acetic acid] | 99%
COc1ccc2c(n1)CCN(C(=O)[C@H]1C[C@@H](CC(=O)O)C1)[C@H]2C(=O)Nc1cc(F)c([Si](C)(C)C)c(F)c1 [Example 23, (cis-3-(((5R)-5-((3,5-difluoro-4-(trimethylsilyl)phenyl)carbamoyl)-2-methoxy-7,8-dihydro-1,6-naphthyridin-6(5H)-yl)carbonyl)cyclobutyl)acetic acid] | 96%
COCc1ccc2c(c1)CCN(C(=O)[C@H]1C[C@H](CC(=O)O)C1)[C@H]2C(=O)Nc1cc(F)c2c(c1)CCC2(C)C [Example 24, (trans-3-(((1R)-1-((7-fluoro-1,1-dimethyl-2,3-dihydro-1H-inden-5-yl)carbamoyl)-6-(methoxymethyl)-3,4-dihydroisoquinolin-2(1H)-yl)carbonyl)cyclobutyl)acetic acid] | 74%
COc1ccc2c(c1)CCN(C(=O)[C@H]1C[C@@H](CC(=O)O)C1)[C@H]2C(=O)Nc1cc(F)c([Si](C)(C)C)c(F)c1 [Example 25, (cis-3-(((1R)-1-((3,5-difluoro-4-(trimethylsilyl)phenyl)carbamoyl)-6-methoxy-3,4-dihydroisoquinolin-2(1H)-yl)carbonyl)cyclobutyl)acetic acid] | 92%
COc1ccc2c(n1)CCN(C(=O)[C@H]1C[C@H](CC(=O)O)C1)[C@H]2C(=O)Nc1cc(F)c([Si](C)(C)C)c(F)c1 [Example 28, (trans-3-(((5R)-5-((3,5-difluoro-4-(trimethylsilyl)phenyl)carbamoyl)-2-methoxy-7,8-dihydro-1,6-naphthyridin-6(5H)-yl)carbonyl)cyclobutyl)acetic acid] | 91%
COc1ccc2c(c1)CCN(C(=O)[C@H]1C[C@@H]1CC(=O)O)[C@H]2C(=O)Nc1cc(F)c([Si](C)(C)C)c(F)c1 [Example 29, ((1R,2S)-2-(((1R)-1-((3,5-difluoro-4-(trimethylsilyl)phenyl)carbamoyl)-6-methoxy-3,4-dihydroisoquinolin-2(1H)-yl)carbonyl)cyclopropyl)acetic acid] | 73%
COc1ccc2c(n1)CCN(C(=O)[C@H]1C[C@@H](C(=O)O)C1)[C@H]2C(=O)Nc1cc(F)c([Si](C)(C)C)c(F)c1 [Example 31, cis-3-(((5R)-5-((3,5-difluoro-4-(trimethylsilyl)phenyl)carbamoyl)-2-methoxy-7,8-dihydro-1,6-naphthyridin-6(5H)-yl)carbonyl)cyclobutanecarboxylic acid] | 85%
COc1ccc2c(c1)CCN(C(=O)[C@H]1C[C@@H](C(=O)O)C1)[C@H]2C(=O)Nc1ccc([Si](C)(C)C)c(F)c1 [Example 32, cis-3-(((1R)-1-((3-fluoro-4-(trimethylsilyl)phenyl)carbamoyl)-6-methoxy-3,4-dihydroisoquinolin-2(1H)-yl)carbonyl)cyclobutanecarboxylic acid] | 83%
COc1ccc2c(c1)CCN(C(=O)[C@H]1C[C@@H](CC(=O)O)C1)[C@H]2C(=O)Nc1ccc([Si](C)(C)C)c(F)c1 [Example 33, (cis-3-(((1R)-1-((3-fluoro-4-(trimethylsilyl)phenyl)carbamoyl)-6-methoxy-3,4-dihydroisoquinolin-2(1H)-yl)carbonyl)cyclobutyl)acetic acid] | 94%
COc1ccc2c(n1)CCN(C(=O)[C@H]1C[C@@H](C(=O)OCc3ccccc3)C1)[C@H]2C(=O)Nc1cc(F)c2c(c1)CCC2(C)C [Example 36, benzyl cis-3-(((5R)-5-((7-fluoro-1,1-dimethyl-2,3-dihydro-1H-inden-5-yl)carbamoyl)-2-methoxy-7,8-dihydro-1,6-naphthyridin-6(5H)-yl)carbonyl)cyclobutanecarboxylate] | 78%
